{"source": "paper PMC7584652", "about": "(Nature Communications, 2020)", "settings_in_all_cases": "labelled compound ([5′-α-32P]); 10 mM Tris pH 7.5, 100 mM NaCl, 5 mM MgCl2, room temperature", "key": {"PurR": {"biological_target": "PurR (Bacillus anthracis, UniProt A0AAC8NAH2)"}, "RbgA": {"biological_target": "T1, RbgA (Bacillus anthracis, UniProt A0A6L8PZ03)", "T1 construct": "gene GBAA_3976"}, "GuaC": {"biological_target": "GuaC (Bacillus anthracis, UniProt Q81JJ9)"}, "YjbM (SAS1)": {"biological_target": "T2, YjbM (SAS1) (Bacillus anthracis, UniProt A0A2P0HBB4)", "T2 construct": "gene BA_1212"}}, "data": [{"smiles": "Nc1nc2c(ncn2[C@@H]2O[C@H](COP(=O)(O)OP(=O)(O)O)[C@@H](OP(=O)(O)OP(=O)(O)O)[C@H]2O)c(=O)[nH]1", "note": "[ppGpp]", "values": [{"measurement": "DRaCALA screen in E. coli overexpression lysate", "setting": "PurR", "value": "purine nucleotide synthesis proteins (Hpt1, Xpt, Gmk, GuaC, PurA, and PurR)"}, {"measurement": "DRaCALA screen in E. coli overexpression lysate", "setting": "RbgA", "value": "ribosome and translation regulatory GTPases (HflX, Der, Obg, RbgA, TrmE, and Era)"}]}, {"smiles": "Nc1nc2c(ncn2[C@@H]2O[C@H](COP(=O)(O)O)[C@@H](OP(=O)(O)OP(=O)(O)O)[C@H]2O)c(=O)[nH]1", "note": "[pGpp, guanosine-5′-monophosphate-3′-diphosphate]", "values": [{"measurement": "DRaCALA screen in E. coli overexpression lysate", "setting": "GuaC", "value": "including HprT, Xpt, Gmk, and GuaC, bound both pGpp and (p)ppGpp"}]}, {"smiles": "Nc1nc2c(ncn2[C@@H]2O[C@H](COP(=O)(O)OP(=O)(O)OP(=O)(O)O)[C@@H](OP(=O)(O)OP(=O)(O)O)[C@H]2O)c(=O)[nH]1", "note": "[pppGpp]", "values": [{"measurement": "DRaCALA screen in E. coli overexpression lysate", "setting": "YjbM (SAS1)", "value": "several proteins bind to pppGpp but not ppGpp, including the small alarmone synthetase YjbM"}]}]}
